# Assay results taken from ChEMBL document CHEMBL1149373, “Computer-aided design of non-nucleoside inhibitors of HIV-1 reverse transcriptase” (Bioorg Med Chem Lett, 2006).
# Assays:
# [1] = system: MT2; experiment: Cytotoxicity against MT2 cells; assay type: functional; settings: Homo sapiens
# [2] = system: Human immunodeficiency virus 1; experiment: Antiviral activity against wild-type HIV1 in MT2 cells by MTT assay; assay type: functional, organism-based
# [3] = Human immunodeficiency virus 1, MT2, read-out: EC50
structure (smiles),measurement,setting,value
CC(C)=CCOc1cc(Nc2nccc(N)n2)ccc1Cl,CC50,[1],0.5 µM
COc1ccnc(Nc2ccc(Cl)c(OCC=C(C)C)c2)n1,CC50,[1],9 µM
CC(C)=CCOc1cc(Nc2nccs2)ccc1C#N,EC50,[2]; [3],0.21 µM
same,CC50,[1],0.5 µM
CC(C)=CCOc1cc(Nc2nccs2)ccc1C,EC50,[2]; [3],3 µM
same,CC50,[1],17 µM
CC(C)=CCOc1cc(Nc2ncccn2)ccc1C,EC50,[2]; [3],2.8 µM
same,CC50,[1],78 µM
Cc1cc(C#N)cc(C)c1Oc1nc(Nc2ccc(C#N)cc2)nc(N)c1Br [ETRAVIRINE],EC50,[2]; [3],< 0.002 µM
same,CC50,[1],> 1 µM
CC(C)=CCOc1cc(Nc2ccccn2)ccc1C,EC50,[2],Not Active
same,CC50,[1],35 µM
COc1ccc(Nc2nccs2)cc1OCC=C(C)C,EC50,[2]; [3],3.8 µM
same,CC50,[1],42 µM
CC(C)=CCOc1cc(NC(=S)c2ccoc2C)ccc1Cl [UC 781],EC50,[2]; [3],0.002 µM
same,CC50,[1],> 100 µM
CC(C)=CCOc1cc(Nc2nccs2)ccc1Cl,EC50,[2]; [3],0.3 µM
same,CC50,[1],26 µM
CC(C)=CCOc1cc(Nc2ncccn2)ccc1C#N,EC50,[2],Not Active
same,CC50,[1],< 0.2 µM
CCc1ccc(Nc2nccs2)cc1OCC=C(C)C,EC50,[2]; [3],5 µM
same,CC50,[1],31 µM
Cc1cn([C@H]2C=C[C@@H](CO)O2)c(=O)[nH]c1=O [STAVUDINE],EC50,[2]; [3],3 µM
same,CC50,[1],> 100 µM
CSc1ccnc(Nc2ccc(Cl)c(OCC=C(C)C)c2)n1,CC50,[1],2.8 µM
CC(C)=CCOc1cccc(Nc2nccs2)c1,EC50,[2]; [3],10 µM
same,CC50,[1],23 µM
CCCc1ccc(Nc2nccs2)cc1OCC=C(C)C,EC50,[2]; [3],23 µM
same,CC50,[1],23 µM
Cc1ccnc2c1NC(=O)c1cccnc1N2C1CC1 [NEVIRAPINE],CC50,[1],> 10 µM
CC(C)=CCOc1cccc(Nc2ncccn2)c1,EC50,[2]; [3],30 µM
same,CC50,[1],> 100 µM
CC(C)=CCOc1cc(Nc2ccccn2)ccc1Cl,CC50,[1],15 µM
CC(C)=CCOc1cc(Nc2ncccn2)ccc1Cl,CC50,[1],2.5 µM
CC(C)=CCOc1cc(Nc2nccs2)ccc1C(C)C,EC50,[2],Not Active
same,CC50,[1],31 µM
CC(C)=CCOc1cc(Nc2nccc(C)n2)ccc1Cl,EC50,[2],Not Active
same,CC50,[1],< 0.2 µM
CC(C)=CCOc1cc(Nc2nccc(C(F)(F)F)n2)ccc1Cl,EC50,[2]; [3],0.065 µM
same,CC50,[1],2.5 µM
CC(C)=CCOc1cc(Nc2ccccn2)ccc1C#N,EC50,[2],Not Active
same,CC50,[1],0.29 µM
